Assay results as given in patent publication US8936793B2, “Synthetic archaeal glycolipid adjuvants” (National Research Council of Canada, priority 2006, dated 2015).

Assays:
[1] = tested on: Listeria monocytogenes (LM)-OVA construct; assay: Protection against LM-OVA challenge after vaccination, splenic CFU; assay type: in vivo; details: glyco-archaeol/DPPG/chol (25/55/20, mol %), FIG. 13
Protocol: FIG. 13 illustrates protection against LM-OVA challenge after vaccination with OVA-adjuvant combinations. C57BL/6J mice were immunized on day 0 and 21 with 15 ug OVA entrapped in various synthetic archaeosomes composed of the respective synthetic glyco-archaeol/DPPG/chol (25/55/20, mol %). At 8 weeks, mice were challenged with 10^4 intravenous dose of Listeria monocytogenes (LM)-OVA construct. Mice were euthanized 3 days later. Mean±SEM of splenic colony forming units (CFU) is shown for each group.

[2] = tested on: SIINFEKL stimulated IFN-γ-secreting cells; assay: Elispot assay of antigen-specific CD8+ T cell activity in splenic cells of immunized mice; assay type: in vivo, C57BL/6 mice; details: for CD8+ T cell adjuvant activity, Elispot, FIG. 7C: glyco-archaeol/DPPG/cholesterol (25/55/20, mol %); for antigen-specific CD8+ T cell response, Elispot, FIG. 10A: gentiotriose archaeol/anionic lipid/cholesterol (35/35/30, mol %), weeks 6 and 8
Protocol: To determine adjuvant activity, various synthetic archaeosomes with OVA entrapped (OVA-archaeosomes) were used to immunize female C57BL/6 mice on days 0 and 21 (6-8 weeks old on first injection). Injections were subcutaneous at the tail base with 0.1 ml PBS containing 15 μg OVA entrapped in 0.2-0.63 mg lipids. Blood samples were collected from the tail vein for anti-OVA IgG/IgM antibody titration done by ELISA (13). In some cases faecal extracts were assayed for IgA (and IgG) to assess mucosal responses following systemic immunizations. Fresh faeces (about 30 mg dry weight) were collected from 4 mice/group, and extracted by adding 0.5 ml of phosphate buffered saline (pH 7.0) containing 10% fetal calf serum and 0.1% sodium azide. Homogenized samples were centrifuged and Elisa measured anti OVA antibody in supernatants. Spleens were collected to determine CTL activity using the Cr^51-assay with specific and non-specific targets EG.7 and EL-4, respectively (14). In Elispot assays antigen-specific CD8^+ T cell activity was measured in splenic cells from immunized mice by determining the number of […] stimulated IFN-γ-secreting cells per 5×10^5 splenic cells (15).

anti-OVA antibody = assay: Anti-OVA IgG/IgM antibody titration in blood of immunized mice by ELISA; assay type: in vivo, C57BL/6 mice; details: for antigen-specific antibody response, FIG. 10B: gentiotriose archaeol/anionic lipid/cholesterol (35/35/30, mol %), 9 weeks
Protocol: (§1) To determine adjuvant activity, various synthetic archaeosomes with OVA entrapped (OVA-archaeosomes) were used to immunize female C57BL/6 mice on days 0 and 21 (6-8 weeks old on first injection). Injections were subcutaneous at the tail base with 0.1 ml PBS containing 15 μg OVA entrapped in 0.2-0.63 mg lipids. Blood samples were collected from the tail vein for anti-OVA IgG/IgM antibody titration done by ELISA (13). In some cases faecal extracts were assayed for IgA (and IgG) to assess mucosal responses following systemic immunizations. Fresh faeces (about 30 mg dry weight) were collected from 4 mice/group, and extracted by adding 0.5 ml of phosphate buffered saline (pH 7.0) containing 10% fetal calf serum and 0.1% sodium azide. Homogenized samples were centrifuged and Elisa measured anti OVA antibody in supernatants. Spleens were collected to determine CTL activity using the Cr^51-assay with specific and non-specific targets EG.7 and EL-4, respectively (14). In Elispot assays antigen-specific CD8^+ T cell activity was measured in splenic cells from immunized mice by determining the number of SIINFEKL stimulated IFN-γ-secreting cells per 5×10^5 splenic cells (15).

[3] = Archaeosome formation upon hydration and stability on storage (microscopic examination, size); assay type: physicochemical; details: lipid hydrated alone
Source text: Presence of a relationship was explored between adjuvant activity and the mol % of the active ingredient, β-D-Glc-(1,6)-β-D-Glc-archaeol, mixed with DPPG/cholesterol. Cholesterol was maintained constant at 20 mol % with DPPG added as required to balance increasing amounts of β-D-Glc-(1,6)-β-D-Glc-archaeol. […] Hydration became more difficult at 60 mol % D-Glc-(1,6)-β-D-Glc-archaeol, and archaeosomes with 60 mol % of the synthetic glyco-archaeol increased in size during the removal of unentrapped antigen indicating instability (Table 11). […] Immunized mice developed CD8^+ T cell immune responses that were best at 15-45 mol % Glc2-archaeol content (FIG. 5).
The need for cholesterol, and the optimal mol % cholesterol needed to achieve stability of archaeosomes containing 35 mol % D-Glc-(1,6)-β-D-Glc-archaeol was explored. Cholesterol was varied in each preparation from 0, 10, 20, 30 and 45 mol %. DPPG made up the balance of each preparation. Lipids were mixed in solvent and archaeosomes were loaded with the antigen OVA as described in methods. Archaeosomes formed in all cases upon hydrating at 35° C. However, when stored at refrigeration temperatures (4-6° C.) these synthetic archaeosomes with no cholesterol were unstable, converting to amorphous lipid debris and needle shaped crystals. This instability was avoided by inclusion of 10 mol % or more cholesterol. […] The optimal cholesterol was therefore in the range of >10 to <45 mol %.
Archaeosomes/liposomes were prepared by hydrating 20-30 mg lipids at 40° C. in 2 ml of PBS buffer (10 mM sodium phosphate, 160 mM NaCl, pH 7.1) or water with (Ag-loaded) or without (Ag-free) the test antigen OVA dissolved at 10 mg/ml. In some cases, cholesterol (Sigma), DPPS, DPPE, or DPPG (Avanti Polar Lipids) polar lipids were mixed in chloroform/methanol with the synthetic glyco-archaeols. […] Quantification of antigen loading was done by SDS polyacrylamide gel electrophoresis as described and based on salt corrected dry weights (27). Average diameters were determined by particle size analysis using a 5 mW He/Ne laser (Nicomp 370).

[4] = tested on: antigen specific EG.7 targets; assay: CTL activity in splenocytes of immunized mice, Cr51-assay; assay type: in vivo, C57BL/6 mice; details: for CTL adjuvant activity, FIG. 7B: disaccharide-archaeol/DPPG/cholesterol (25/55/20, mol %), 12 weeks
Protocol: as §1

B16OVA cells = assay: Skin melanoma solid tumor model, protection upon vaccination; assay type: in vivo, C57BL/6 mice; details: 5 mice/group, vaccinated s.c. with 15 μg OVA at 0 and 3 weeks, archaeal lipid/DPPG/cholesterol 25/55/20 mol %
Protocol: A skin melanoma solid tumor model was used in mice to evaluate protection achieved upon vaccination with synthetic archaeosomes. Mice were vaccinated subcutaneously with 15 μg OVA or synthetic archaeosome compositions containing 15 μg OVA at 0 and 3 weeks. Archaeosome lipid compositions were synthetic archaeal lipid/DPPG/cholesterol (25/55/20 mol %). At week 7 post first injection 5×10^6 B16OVA cells were injected subcutaneously in the shaved lower dorsal area. The time was recorded when solid tumours became evident.

CC(C)CCC[C@@H](C)CCC[C@@H](C)CCC[C@@H](C)CCOC[C@H](CO[C@@H]1O[C@H](CO[C@H]2O[C@H](CO)[C@@H](O)[C@H](O)[C@H]2O)[C@@H](O)[C@H](O)[C@H]1O)OCC[C@H](C)CCC[C@H](C)CCC[C@H](C)CCCC(C)C [isomaltose-A]
protection from LM-OVA infection [1]: less protective
CD8+ T cell adjuvant activity, Elispot, FIG. 7C ([2]; 6 weeks): lower CD8^+ T cell responses
antibody responses, FIG. 7D (anti-OVA antibody; glyco-archaeol/DPPG/cholesterol (25/55/20, mol %), 6 weeks): quite strong

archaetidylglycerophosphate-methyl [AGP-CH3]
antigen-specific CD8+ T cell response, Elispot, FIG. 10A [2]: Best activity

CC(C)CCC[C@@H](C)CCC[C@@H](C)CCC[C@@H](C)CCOC[C@H](CO[C@H]1O[C@H](CO)[C@@H](O)[C@H](O)[C@@H]1O[C@H]1O[C@H](CO)[C@@H](O)[C@H](O)[C@@H]1O)OCC[C@H](C)CCC[C@H](C)CCC[C@H](C)CCCC(C)C [Man2-C]
archaeosome formation upon hydration [3]: did not form readily

CC(C)CCC[C@@H](C)CCC[C@@H](C)CCC[C@@H](C)CCOC[C@H](CO[C@@H]1O[C@H](CO)[C@@H](O[C@@H]2O[C@H](CO)[C@H](O)[C@H](O)[C@H]2O)[C@H](O)[C@H]1O)OCC[C@H](C)CCC[C@H](C)CCC[C@H](C)CCCC(C)C [lactose-archaeol]
CTL adjuvant activity, FIG. 7B [4]: strong

CC(C)CCC[C@@H](C)CCC[C@@H](C)CCC[C@@H](C)CCOC[C@H](CO[C@@H]1O[C@H](CO[C@@H]2O[C@H](CO)[C@@H](O)[C@H](O)[C@H]2O)[C@@H](O)[C@H](O)[C@H]1O)OCC[C@H](C)CCC[C@H](C)CCC[C@H](C)CCCC(C)C [Glc2-archaeol]
CD8+ T cell adjuvant activity, Elispot, FIG. 7C ([2]; 6 weeks): best
archaeosome formation upon hydration [3]: did not form readily
anti-OVA antibody response, FIG. 4B (anti-OVA antibody; 15 μg OVA s.c. 0 and 3 weeks, 6 and 11 weeks): dramatic increase
CTL response, FIG. 4A ([4]; 15 μg OVA s.c. 0 and 3 weeks, 6 weeks from first injection): dramatic increase
mol % Glc2-archaeol content at which CD8+ T cell immune responses were best ([4]; cholesterol 20 mol %, DPPG remainder, FIG. 5): 15-45 mol %

CC(C)CCC[C@@H](C)CCC[C@@H](C)CCC[C@@H](C)CCOC[C@H](CO[C@@H]1O[C@H](CO[C@H]2O[C@H](CO)[C@H](O)[C@H](O)[C@H]2O)[C@@H](O)[C@H](O)[C@H]1O)OCC[C@H](C)CCC[C@H](C)CCC[C@H](C)CCCC(C)C [melibiose-archaeol]
CTL adjuvant activity, FIG. 7B [4]: strong

Sulfonoquinovosyl diacylglycerol [SQDG]
antigen-specific CD8+ T cell response, Elispot, FIG. 10A [2]: Best activity

archaetidylglycerol [AG]
antigen-specific CD8+ T cell response, Elispot, FIG. 10A [2]: Best activity
CTL adjuvant activity, FIG. 3 ([4]; 15 μg OVA s.c. 0 and 3 weeks, spleens 7 weeks after first immunization): little ability to serve as adjuvants

archaetidylinositol
antigen-specific antibody response, FIG. 10B (anti-OVA antibody): favoured the antibody CD4^+ T cell response over the CD8^+ T cell response

CC(C)CCC[C@@H](C)CCC[C@@H](C)CCC[C@@H](C)CCOC[C@H](CO[C@H]1O[C@H](CO)[C@@H](O)[C@H](O)[C@@H]1O)OCC[C@H](C)CCC[C@H](C)CCC[C@H](C)CCCC(C)C [Man1-C]
archaeosome formation upon hydration [3]: did not form readily

CCCCCCCCCCCCCCCC(=O)OCC(COP(=O)(O)OCCN)OC(=O)CCCCCCCCCCCCCCC (centres unmarked) [DPPE, reference compound]
antigen-specific CD8+ T cell response, Elispot, FIG. 10A [2]: relatively low CD8^+ T cell activity
Elispot activity as % of the activity found for DPPG ([2]; gentiotriose-archaeol/anionic lipid/cholesterol (35/35/30, mol %), 6 weeks, data not shown): 27%
antigen-specific antibody response, FIG. 10B (anti-OVA antibody): equivalent in antibody response to archaeosomes containing archaetidylglycerol

CC(C)CCC[C@@H](C)CCC[C@@H](C)CCC[C@@H](C)CCOC[C@H](CO[C@@H]1O[C@H](CO[C@@H]2O[C@H](CO[C@@H]3O[C@H](CO)[C@@H](O)[C@H](O)[C@H]3O)[C@@H](O)[C@H](O)[C@H]2O)[C@@H](O)[C@H](O)[C@H]1O)OCC[C@H](C)CCC[C@H](C)CCC[C@H](C)CCCC(C)C [gentiotriose-A]
protection from LM-OVA infection [1]: Best protection

CCCCCCCCCCCCCCCC(=O)OCC(COP(=O)(O)OCC(O)CO)OC(=O)CCCCCCCCCCCCCCC (centres unmarked) [DPPG, dipalmitoylphosphatidylglycerol, reference compound]
antigen-specific CD8+ T cell response, Elispot, FIG. 10A [2]: transient

B1: OVA (protein, UniProt P01012 2-386, looked up)
Ovalbumin: GSIGAASMEFCFDVFKELKVHHANENIFYCPIAIMSALAMVYLGAKDSTRTQINKVVRFDKLPGFGDSIEAQCGTSVNVHSSLRDILNQITKPNDVYSFSLASRLYAEERYPILPEYLQCVKELYRGGLEPINFQTAADQARELINSWVESQTNGIIRNVLQPSSVDSQTAMVLVNAIVFKGLWEKAFKDEDTQAMPFRVTEQESKPVQMMYQIGLFRVASMASEKMKILELPFASGTMSMLVLLPDEVSGLEQLESIINFEKLTEWTSSNVMEERKIKVYLPRMKMEEKYNLTSVLMAMGITDVFSSSANLSGISSAESLKISQAVHAAHAEINEAGREVVGSAEAGVDAASVSEEFRADHPFLFCIKHIATNAVLFFGRCVSP
numbers of mice that developed a solid tumor (B16OVA cells; 6 days from subcutaneous injection of B16OVA tumor cells): 2
numbers of mice that developed a solid tumor (B16OVA cells; 9 days from subcutaneous injection of B16OVA tumor cells): 3
numbers of mice that developed a solid tumor (B16OVA cells; 16 days from subcutaneous injection of B16OVA tumor cells): 4
numbers of mice that developed a solid tumor (B16OVA cells; 20 days from subcutaneous injection of B16OVA tumor cells): euthanized
